According to patent US12286442B2, “Methods and materials for increasing transcription factor eb polypeptide levels” (University of Pittsburgh—Of the Commonwealth System of …, priority 2019, dated 2025):

Legend:
[1] = tested on: BEAS-2B cells; assay: Toxicity: compound concentration needed to induce greater than 50 percent of cell loss; type: cell-based, human; settings: 18 hours incubation
Method: (§1) Approximately 2300 primary and immortalized human bronchial epithelial cells (BEAS-2B) stably expressing TFEB-EGFP in 25 μL of HITEs media with 10% FBS were dispensed into 384 well plate (Black with glass bottom) and incubated for 8 hours. Compound serial dilution (DMEM low glucose media with 2% FBS, 25 μL volume) were prepared using a robotic liquid hander. Compound solution were then added to the cell plate and incubated for 18 hours. Cells were then fixed with 4% PFA followed by DAPI staining. TFEB localization was imaged on the GFP channel along with the DAPI signal using a Cytation 5 high content imager. Images were processed through Biotek Gen5 software. Specifically, the DAPI signal was used as the primary mask to quantify the nuclear TFEB-GFP signal. Cytosolic TFEB-GFP signal was quantified through expanding the primary mask. The TFEB nuclear/cytosol ratios were calculated from nuclear TFEB-GFP signal/cytosol TFEB-GFP signal, which determined the compound efficacies.
Toxicity was determined by determining the compound concentration needed to induce greater than 50 percent of cell loss. For toxicity, cell loss of greater than 50 percent at a concentration that equals or is greater than 25 μM was represented as cell loss of greater than 50 percent at a concentration less than 25 μM and greater than 1 μM was represented as and cell loss of greater than 50 percent at a concentration that equals or is less than 1 μM was represented as “+++.” The assay results for compounds 1-202, 214-248, 332, 333, and 352-402 are shown in Table A.

[2] = tested on: TFEB; assay: High content screen measuring TFEB nuclear accumulation (TFEB nuclear/cytosol ratio) in BEAS-2B cells stably expressing TFEB-EGFP; type: cell-based, human; settings: 18 hours incubation
Method: FIG. 3. High content screen assay (384 well) measuring TFEB nuclear accumulation. Approximately 2500 primary and immortalized human bronchial epithelial cells (BEAS-2B) stably expressing TFEB-EGFP in 25 μL of HITEs media with 10% FBS were dispensed into 384 well plate (Black with glass bottom) and incubated for 8 hours. Compound serial dilution (DMEM low glucose media with 2% FBS, 25 μL volume) were prepared using a robotic liquid hander. Compound solutions were then added to the cell plate and incubated for 18 hours. Cells were then fixed with 4% PFA followed by DAPI staining. TFEB localization was imaged on the GFP channel along with the DAPI signal using a Cytation 5 high content imager. Images were processed through Biotek Gen5 software; specifically, the DAPI signal was used as the primary mask to quantify the nuclear TFEB-GFP signal. The cytosolic TFEB-GFP signal was quantified through expanding the primary mask. The TFEB nuclear/cytosol ratios were calculated from nuclear TFEB-GFP signal/cytosol TFEB-GFP signal, which determined the compound efficacy. […] Compound activities (μM) were determined by the minimal compound concentration needed to increase TFEB nuclear/cytosol ratio by 25%. Activity: “−” equals >25 μM; “+” equals between 25 μM and >10 μM; “++” equals between ≤10 μM and >1 μM; and “+++” equals […]. N=4.
as §1
Compounds efficacies (μM) were determined by the minimal compound concentration needed to increase TFEB nuclear/cytosol ratio by 25%. Activity: “+” equals >25 μM; “++” equals between ≤25 μM and >1 μM; and “+++” equals ≤1 μM.
A high-content imaging screen was conducted using Beas2B cells that stably express GFP-TFEB.

Structure (SMILES)	toxicity (compound concentration needed to induce greater than 50 percent of cell loss) [1]	efficacy (minimal compound concentration needed to increase TFEB nuclear/cytosol ratio by 25%) [2]
Cc1cc(F)cc(Nc2nc(-c3ccncc3)nc3ccccc23)c1 [Compound 1]	+ (cell loss of greater than 50 percent at a concentration that equals or is greater than 25 μM was represented as)	+++ (“+++” equals ≤1 μM)
Cc1cc(C)cc(Nc2nc(-c3ccncc3)nc3ccccc23)c1 [Compound 2]	+ (cell loss of greater than 50 percent at a concentration that equals or is greater than 25 μM was represented as)	+++ (“+++” equals ≤1 μM)
NC(=O)c1cccc(Nc2nc(-c3ccncc3)nc3ccccc23)c1 [Compound 3]	+ (cell loss of greater than 50 percent at a concentration that equals or is greater than 25 μM was represented as)	+++ (“+++” equals ≤1 μM)
CN(c1cccc(F)c1)c1nc(-c2ccncc2)nc2ccccc12 [Compound 4]	+++ (cell loss of greater than 50 percent at a concentration that equals or is less than 1 μM was represented as “+++.”)	+++ (“+++” equals ≤1 μM)
O=C(c1cccc(F)c1)c1nc(-c2ccncc2)nc2ccccc12 [Compound 5]	+ (cell loss of greater than 50 percent at a concentration that equals or is greater than 25 μM was represented as)	+ (“+” equals >25 μM)
OC(c1cccc(F)c1)c1nc(-c2ccncc2)nc2ccccc12 (stereo not shown) [Compound 6]	+ (cell loss of greater than 50 percent at a concentration that equals or is greater than 25 μM was represented as)	+ (“+” equals >25 μM)
Fc1cccc(Cc2nc(-c3ccncc3)nc3ccccc23)c1 [Compound 7]	+ (cell loss of greater than 50 percent at a concentration that equals or is greater than 25 μM was represented as)	+ (“+” equals >25 μM)
Fc1cccc(Nc2nc(-c3cncnc3)nc3ccccc23)c1 [Compound 8]	+ (cell loss of greater than 50 percent at a concentration that equals or is greater than 25 μM was represented as)	+ (“+” equals >25 μM)
O=[N+]([O-])c1ccc(-c2nc(Nc3cccc(F)c3)c3ccccc3n2)cc1 [Compound 9]	+ (cell loss of greater than 50 percent at a concentration that equals or is greater than 25 μM was represented as)	+ (“+” equals >25 μM)
Cc1cc(Nc2nc(-c3ccncc3)nc3ccccc23)cc(C(F)(F)F)c1 [Compound 10]	+ (cell loss of greater than 50 percent at a concentration that equals or is greater than 25 μM was represented as)	+ (“+” equals >25 μM)
c1ccc2c(Nc3ccc4cn[nH]c4c3)nc(-c3ccncc3)nc2c1 [Compound 11]	+ (cell loss of greater than 50 percent at a concentration that equals or is greater than 25 μM was represented as)	+++ (“+++” equals ≤1 μM)
c1ccc2c(Nc3ccc4c(c3)OCO4)nc(-c3ccncc3)nc2c1 [Compound 12]	+ (cell loss of greater than 50 percent at a concentration that equals or is greater than 25 μM was represented as)	+++ (“+++” equals ≤1 μM)
c1ccc2c(Nc3ccc4cnccc4c3)nc(-c3ccncc3)nc2c1 [Compound 14]	+ (cell loss of greater than 50 percent at a concentration that equals or is greater than 25 μM was represented as)	+ (“+” equals >25 μM)
FC1(F)Oc2ccc(Nc3nc(-c4ccncc4)nc4ccccc34)cc2O1 [Compound 17]	+ (cell loss of greater than 50 percent at a concentration that equals or is greater than 25 μM was represented as)	+ (“+” equals >25 μM)
Fc1cc(Nc2nc(-c3ccncc3)nc3ccccc23)cc(C(F)(F)F)c1 [Compound 18]	+ (cell loss of greater than 50 percent at a concentration that equals or is greater than 25 μM was represented as)	+ (“+” equals >25 μM)
COc1cc(F)cc(Nc2nc(-c3ccncc3)nc3ccccc23)c1 [Compound 19]	+ (cell loss of greater than 50 percent at a concentration that equals or is greater than 25 μM was represented as)	+ (“+” equals >25 μM)
COc1cc(C)cc(Nc2nc(-c3ccncc3)nc3ccccc23)c1 [Compound 20]	+ (cell loss of greater than 50 percent at a concentration that equals or is greater than 25 μM was represented as)	++ (“++” equals between ≤25 μM and >1 μM)
CCc1cc(F)cc(Nc2nc(-c3ccncc3)nc3ccccc23)c1 [Compound 21]	+ (cell loss of greater than 50 percent at a concentration that equals or is greater than 25 μM was represented as)	+ (“+” equals >25 μM)
CCc1cc(C)cc(Nc2nc(-c3ccncc3)nc3ccccc23)c1 [Compound 22]	+ (cell loss of greater than 50 percent at a concentration that equals or is greater than 25 μM was represented as)	+ (“+” equals >25 μM)
Cn1ncc2ccc(Nc3nc(-c4ccncc4)nc4ccccc34)cc21 [Compound 23]	+ (cell loss of greater than 50 percent at a concentration that equals or is greater than 25 μM was represented as)	+++ (“+++” equals ≤1 μM)
c1ccc2c(Nc3ccc4cnsc4c3)nc(-c3ccncc3)nc2c1 [Compound 24]	+ (cell loss of greater than 50 percent at a concentration that equals or is greater than 25 μM was represented as)	+++ (“+++” equals ≤1 μM)
c1ccc2c(Nc3ccc4cc[nH]c4c3)nc(-c3ccncc3)nc2c1 [Compound 25]	++ (cell loss of greater than 50 percent at a concentration less than 25 μM and greater than 1 μM was represented as)	+++ (“+++” equals ≤1 μM)
Cn1ccc2cc(Nc3nc(-c4ccncc4)nc4ccccc34)ccc21 [Compound 26]	+++ (cell loss of greater than 50 percent at a concentration that equals or is less than 1 μM was represented as “+++.”)	+++ (“+++” equals ≤1 μM)
